Experimental findings from doi:10.1101/2024.08.19.608619, “Discovery of potent SARS-CoV-2 nsp3 macrodomain inhibitors uncovers lack of translation to cellular antiviral response” (bioRxiv, 2024) are described below.

A word on the EC50: it is the concentration at which the effect is half-maximal. As usually defined, the EC90 is the concentration needed for an effect of 90%. As usually defined, the CC50 is the concentration that lowers cell viability or growth by half.

SMILES strings stand for the structures. Values after ≈ are worked out from the molar mass of the structure shown. Read-outs that look alike come from different tables or passages of the source. Some results are limits rather than exact numbers.

Data set [1] can be described thus: Hepatic microsomal stability, MLM. In kind it is in vitro ADME.
For data set [2], the system named is SARS-CoV-2, isolate USA-WA1/2020. Kind of data set: microbe, parasite or virus in culture. Format: cell-based. Particulars: HeLa-ACE2 SARS-CoV-2 antiviral effect without P-gp inhibitor; for perc_max_measured: maximum measured response of dose series; for perc_min_measured: minimum measured response of dose series; for EC50: read-out: ec50; for EC90: read-out: ec90.

The nature of data set [3]: In vitro kinetic solubility. Particulars: In vitro kinetic solubility, ph 7.4.
Data set [4] in a line: Permeability Papp (AB) MDR1/MDCKII. Particulars: In vitro MDR1-MDCKII permeability; for papp_a_to_b_mean: A to B; for perc_recovery_a_to_b_mean: recovery A to B.
For a further data set, the system named is HeLa-ACE2 cells. Particulars: for perc_max_measured: highest measured response of the dose series; for perc_min_measured: lowest measured response of the dose series.
The nature of another data set: LogD. Particulars: pH 7.4; In vitro LogD.
The nature of data set [5]: Hepatic microsomal stability, HLM. Format: in vitro ADME, human. Particulars: In vitro human liver microsomal stability; for perc_remaining_no_cofactor: no cofactor. On the technique in general: Liver microsomes are vesicles of endoplasmic reticulum, rich in cytochrome P450 enzymes.
Where [6] appears, read: In vitro mouse liver microsomal stability.
[7] abbreviates: In vitro mouse liver microsomal stability, no cofactor.
The mark [8] stands for this setting: protocol HeLa-ACE2 cytotoxicity.

As to `Cc1nn(C)cc1-c1cc2c(N[C@H](c3ccc4c(c3)S(=O)(=O)CCC4)C(C)C)ncnc2[nH]1` (single isomer, unassigned) [ASAP-0011448], in data set [1] (setting [6]), the clint stood at 390.0 µL/min/mg, the perc_remaining turned out to be 1.0% and the t_half turned out to be 4.3 min. For the same compound, the perc_remaining_no_cofactor in data set [1] (setting [7]) stood at 103.0%. For the same compound, in data set [2], the perc_max_measured is 131.643%, the perc_min_measured came to 93.649%, the 50% effective concentration (EC50) was more than 20 µM and the EC90 was more than 20 µM. The solubility_mean in data set [3] is 63 µM (≈ 29.3 µg/mL). In data set [4] (mean), the papp_a_to_b_mean was 3.69 ×10⁻⁶ cm/s and the perc_recovery_a_to_b_mean was found to be 77.9%. Further, in the data set with HeLa-ACE2 cells (setting [8]), the CC50 was more than 20 µM, the cc10 was more than 20.0 µM, the perc_max_measured stood at 94.816% and the perc_min_measured was 77.647%. In “LogD”, this compound registered a logd of 3.4. Moreover, in data set [5], the clint amounted to 251.0 µL/min/mg, the perc_remaining is given as 2.0%, the t_half was 6.6 min and the perc_remaining_no_cofactor is on record as 116.0%.
With `CCNC(=O)c1cc2c(N[C@H](c3ccc4c(c3)OCCO4)C(C)C)ncnc2[nH]1` [ASAP-0013824], in data set [1] (setting [6]), the clint was 48.0 µL/min/mg, the perc_remaining is 47.0% and the t_half is 34.6 min. Also, the perc_remaining_no_cofactor in data set [1] (setting [7]) came to 94.0%. Also, in data set [2], the perc_max_measured amounted to 109.949%, the perc_min_measured is recorded as 49.504%, the EC50 is 19.7 µM and the EC90 is more than 20 µM. The same compound registered a solubility_mean in data set [3] of 263 µM (≈ 104 µg/mL). In data set [4] (no inhibitor), this compound returned a papp_a_to_b_mean of 2.7 ×10⁻⁶ cm/s and a perc_recovery_a_to_b_mean of 94.3%. In the data set on HeLa-ACE2 cells (HeLa-ACE2 cytotoxicity), this compound showed a 50% cytotoxic concentration (CC50) of more than 20 µM, a cc10 of more than 20.0 µM, a perc_max_measured of 99.37% and a perc_min_measured of 90.423%. Moreover, the logd in “LogD” came to 3.6. In data set [5], the clint is 67.0 µL/min/mg, the perc_remaining amounted to 32.0%, the t_half is 24.8 min and the perc_remaining_no_cofactor amounted to 100.0%.
In data set [1] (setting [6]), `CC(C)(C)[C@H](Nc1ncnc2[nH]c(-c3cnn(CC(N)=O)c3)cc12)c1ccc2c(c1)OCCO2` (single isomer, unassigned) [ASAP-0012332] had a clint of 39.0 µL/min/mg, a perc_remaining of 54.0% and a t_half of 43.1 min. In addition, the perc_remaining_no_cofactor in data set [1] (setting [7]) came out at 106.0%. The solubility_mean in data set [3] was determined as 104 µM (≈ 48 µg/mL). Also, in data set [4] (no inhibitor), the papp_a_to_b_mean came out at 1.01 ×10⁻⁶ cm/s and the perc_recovery_a_to_b_mean is 76.5%. The logd in “LogD” is 3.1. Further, in data set [5], the clint worked out at 100.0 µL/min/mg, the perc_remaining is 18.0%, the t_half amounted to 16.8 min and the perc_remaining_no_cofactor is on record as 109.0%.
In data set [1] (setting [6]), `CC(C)[C@@H](Nc1ncnc2[nH]c(-c3cnn(C)c3C#N)cc12)c1ccc2c(c1)OCCO2` [ASAP-0011033] showed a clint of 129.0 µL/min/mg, a perc_remaining of 13.0% and a t_half of 13.0 min. Besides, the perc_remaining_no_cofactor in data set [1] (setting [7]) is given as 106.0%. The compound also came in with a solubility_mean in data set [3] of 20 µM (≈ 8.59 µg/mL). In data set [4] (no inhibitor), this compound had a papp_a_to_b_mean of 5.11 ×10⁻⁶ cm/s and a perc_recovery_a_to_b_mean of 31.2%. This compound also displayed a logd in “LogD” of 3.4. Also, in data set [5], the clint worked out at 47.0 µL/min/mg, the perc_remaining is reported as 46.0%, the t_half is on record as 35.4 min and the perc_remaining_no_cofactor is 101.0%.
In data set [1] (setting [6]), `CC(C)[C@H](Nc1ncnc2[nH]c(-c3cnn(CC(=O)N(C)C)c3)cc12)c1ccc2c(c1)OCCO2` (single isomer, unassigned) [ASAP-0013837] returned a clint of 45.0 µL/min/mg, a perc_remaining of 48.0% and a t_half of 36.8 min. The perc_remaining_no_cofactor in data set [1] (setting [7]) was found to be 114.0%. Moreover, the solubility_mean in data set [3] turned out to be 205 µM (≈ 97.5 µg/mL). Besides, in data set [4] (no inhibitor), the papp_a_to_b_mean amounted to 1.62 ×10⁻⁶ cm/s and the perc_recovery_a_to_b_mean is reported as 87.9%. In the data set “LogD”, this compound had a logd of 3.0. For the same compound, in data set [5], the clint amounted to 108.0 µL/min/mg, the perc_remaining was found to be 18.0%, the t_half is given as 15.4 min and the perc_remaining_no_cofactor was 114.0%.
In data set [1] (setting [6]), `CCNC(=O)c1cc2c(N[C@H](c3ccc4c(c3)S(=O)(=O)CCC4)C(C)C)ncnc2[nH]1` [ASAP-0012325] gave a clint of 64.0 µL/min/mg, a perc_remaining of 34.0% and a t_half of 26.3 min. In addition, the perc_remaining_no_cofactor in data set [1] (setting [7]) came out at 97.0%. The same compound registered a solubility_mean in data set [3] of 337 µM (≈ 149 µg/mL). For the same compound, in data set [4] (no inhibitor), the papp_a_to_b_mean came out at 0.717 ×10⁻⁶ cm/s and the perc_recovery_a_to_b_mean was determined as 88.3%. In “LogD”, this compound came in with a logd of 2.7. In data set [5], the clint stood at 109.0 µL/min/mg, the perc_remaining turned out to be 17.0%, the t_half is reported as 15.4 min and the perc_remaining_no_cofactor came to 102.0%.
For the compound `CC(C)[C@H](Nc1ncnc2[nH]c(C(=O)N[C@H]3CCN(C)C3)cc12)c1ccc2c(c1)S(=O)(=O)CCC2` [ASAP-0012334], in data set [1] (setting [6]), the clint was determined as 1.0 µL/min/mg, the perc_remaining was 98.0% and the t_half is 1540.5 min. In data set [1] (setting [7]), the perc_remaining_no_cofactor worked out at 97.0%. Further, the solubility_mean in data set [3] stood at 396 µM (≈ 197 µg/mL). Also, in data set [4] (no inhibitor), the papp_a_to_b_mean came out at 0.175 ×10⁻⁶ cm/s and the perc_recovery_a_to_b_mean came to 89.9%. In “LogD”, this compound gave a logd of 1.4. For the same compound, in data set [5], the clint turned out to be 11.0 µL/min/mg, the perc_remaining came out at 80.0%, the t_half is 149.8 min and the perc_remaining_no_cofactor is recorded as 98.0%.
In data set [1] (setting [6]), `CCNC(=O)c1cc2c(N[C@H](c3ccc4c(c3)S(=O)(=O)CCC4)C(C)C)ncnc2[nH]1` (racemic) [ASAP-0008711] displayed a clint of 85.0 µL/min/mg, a perc_remaining of 21.0% and a t_half of 19.5 min. Besides, the perc_remaining_no_cofactor in data set [1] (In vitro mouse liver microsomal stability; no cofactor) came to 95.0%. The same compound registered a solubility_mean in data set [3] of 336 µM (≈ 148 µg/mL). In data set [4] (mean), this compound displayed a papp_a_to_b_mean of 0.7 ×10⁻⁶ cm/s and a perc_recovery_a_to_b_mean of 87.2%. Also, in “LogD”, the logd is 2.8. Also, in data set [5], the clint was 108.0 µL/min/mg, the perc_remaining was found to be 15.0%, the t_half was determined as 15.4 min and the perc_remaining_no_cofactor was found to be 98.0%.
